Assay results reported in patent US5072011A, “Pt(IV) complexes” (Johnson Matthey, Inc., priority 1990, dated 1991).

Tests used:
ADJ/PC6 tumor = assay: antitumor activity using ADJ/PC6 tumor in mice; type: in vivo; settings: for P.O. ED90 / P.O. TI: oral (P.O.); for P.O. TI / I.P. TI: TI from LD50 and ED90; for I.P. ED90 / I.P. TI: parenteral (I.P.)
Experimental: (§1) Complexes according to the invention were tested for antitumor activity using ADJ/PC6 tumor in mice. The complexes were administered parenterally (I.P.) or orally (P.O.).

mice = assay: lethality (LD50) in mice, ADJ/PC6 antitumor test; type: in vivo; settings: for P.O. LD50: oral (P.O.); for I.P. LD50: parenteral (I.P.)
Experimental: as §1

[1] = common organic solvents, e.g., acetone, methylene chloride; cited from earlier work

Row | Compound | P.O. ED90 (ADJ/PC6 tumor) [mg/kg] | P.O. TI (ADJ/PC6 tumor) | I.P. ED90 (ADJ/PC6 tumor) [mg/kg] | I.P. TI (ADJ/PC6 tumor) | P.O. LD50 (mice) [mg/kg] | I.P. LD50 (mice) [mg/kg] | solubility in water / organic solvents (in words), prior-art complexes [1]
1 | c-t-c-PtCl2 (O2 CCH2 CH3)2 (NH3)(n-C3 H7 NH2) [Compound 9 (Table 2)] | 8.6 | 13.7 | 5.6 | 7.4 | 118 | 41.5 | 
2 | N.N.O=C([O-])C1(C(=O)[O-])CCC1.[Pt+2] [carboplatin] |  |  |  |  |  |  | dissolve more readily in water than they do in common organic solvents
3 | c-t-c-PtCl2 (O2 CCH3)2 (NH3)(n-C3 H7 NH2) [Compound 8 (Table 2)] | 18 | 13.1 | 3.1 | 11.3 | 235 | 35 | 
